The source of these data is US10227298B2, “Solid forms of a pharmaceutically active compound” (Hoffmann-La Roche Inc., priority 2014, dated 2019).

Each structure is given as a SMILES string.

The data set is described as follows: aqueous solubility of the crystalline forms. The following applies: pH 1.5, aqueous buffer, in water at physiological pHs (pH1.5-8.0). The class given is physicochemical.

As for `COc1cc(C(=O)O)ccc1NC(=O)[C@@H]1N[C@@H](CC(C)(C)C)[C@](C#N)(c2ccc(Cl)cc2F)[C@H]1c1cccc(Cl)c1F` [Compound A, 4-{[(2R,3S,4R,5S)-4-(4-Chloro-2-fluoro-phenyl)-3-(3-chloro-2-fluoro-phenyl)-4-cyano-5-(2,2-dimethyl-propyl)-pyrrolidine-2-carbonyl]-amino}-3-methoxy-benzoic acid], the solubility (in general, how much of the substance goes into solution per volume) was below 0.05 µg/mL.
